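The compound was tested at five concentrations on cells cultured in 96-well plates, with a 48-hour exposure period. GI50 is the concentration that inhibits growth by half.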 Activity calls are given as the source filed them. No stated cut-off is given here; in the data, active = GI50 up to about 1.1 µM and inactive = higher.
Experiments:
Assay in all cases: NCI tumour cell line growth inhibition, 48 h
SW-620 = tested on: SW-620
LOX IMVI = tested on: LOX IMVI
RPMI-8226 = tested on: RPMI-8226
MOLT-4 = tested on: MOLT-4
HCT-15 = tested on: HCT-15
BT-549 = tested on: BT-549
CAKI-1 = tested on: CAKI-1
MDA-N = tested on: MDA-N
SNB-75 = tested on: SNB-75
U-251 = tested on: U-251
UACC-62 = tested on: UACC-62
OVCAR-5 = tested on: OVCAR-5
HCC 2998 = tested on: HCC 2998
UO-31 = tested on: UO-31
HT-29 = tested on: HT-29
Malme-3M = tested on: Malme-3M
HCT-116 = tested on: HCT-116
SN12C = tested on: SN12C
PC-3 = tested on: PC-3
SF-268 = tested on: SF-268
Hs-578T = tested on: Hs-578T
IGROV-1 = tested on: IGROV-1
OVCAR-8 = tested on: OVCAR-8
SR = tested on: SR
TK-10 = tested on: TK-10
A549 = tested on: A549
SF-539 = tested on: SF-539
EKVX = tested on: EKVX
COLO 205 = tested on: COLO 205
SK-MEL-2 = tested on: SK-MEL-2
NCI-H226 = tested on: NCI-H226
HL-60 = tested on: HL-60
HOP-62 = tested on: HOP-62
MDA-MB-231 = tested on: MDA-MB-231
ACHN = tested on: ACHN
MDA-MB-435 = tested on: MDA-MB-435
K562 = tested on: K562
786-0 = tested on: 786-0
DU-145 = tested on: DU-145
MCF7 = tested on: MCF7
M14 = tested on: M14
SF-295 = tested on: SF-295
OVCAR-4 = tested on: OVCAR-4
NCI-H23 = tested on: NCI-H23
NCI/ADR-RES = tested on: NCI/ADR-RES
RXF 393 = tested on: RXF 393
OVCAR-3 = tested on: OVCAR-3
NCI-H522 = tested on: NCI-H522
SK-MEL-5 = tested on: SK-MEL-5
KM12 = tested on: KM12
SNB-19 = tested on: SNB-19
SK-OV-3 = tested on: SK-OV-3
A498 = tested on: A498
CCRF-CEM = tested on: CCRF-CEM
UACC-257 = tested on: UACC-257
T47D = tested on: T47D
SK-MEL-28 = tested on: SK-MEL-28
HOP-92 = tested on: HOP-92
NCI-H460 = tested on: NCI-H460

With `CC(=O)N(CCc1ccccc1)C(C#N)c1ccccc1` (centres undefined) the GI50 (SW-620) was > 100 µM (inactive), the GI50 (LOX IMVI) was > 100 µM (inactive) and the GI50 (RPMI-8226) was > 100 µM (inactive). For the same molecule, the GI50 (MOLT-4) was > 100 µM (inactive), the GI50 (HCT-15) was > 100 µM and the GI50 (BT-549) was > 100 µM (inactive). The GI50 (CAKI-1) was > 100 µM (inactive), the GI50 (MDA-N) was > 100 µM (inactive) and the GI50 (SNB-75) was 10.5 µM (inactive). The GI50 (U-251) was > 100 µM (inactive), the GI50 (UACC-62) was > 100 µM (inactive) and the GI50 (OVCAR-5) was > 100 µM (inactive). For the same molecule, the GI50 (HCC 2998) was > 100 µM (inactive), the GI50 (UO-31) was > 100 µM (inactive) and the GI50 (HT-29) was > 100 µM (inactive). The GI50 (Malme-3M) was > 100 µM (inactive), the GI50 (HCT-116) was > 100 µM (inactive) and the GI50 (SN12C) was > 100 µM (inactive). The GI50 (PC-3) was > 100 µM (inactive), the GI50 (SF-268) was > 100 µM (inactive) and the GI50 (Hs-578T) was > 100 µM (inactive). For the same molecule, the GI50 (IGROV-1) was > 100 µM (inactive), the GI50 (OVCAR-8) was > 100 µM (inactive) and the GI50 (SR) was > 100 µM (inactive). The GI50 (TK-10) was > 100 µM (inactive), the GI50 (A549) was > 100 µM (inactive) and the GI50 (SF-539) was > 100 µM (inactive). The GI50 (EKVX) was > 100 µM (inactive), the GI50 (COLO 205) was > 100 µM (inactive) and the GI50 (SK-MEL-2) was > 100 µM (inactive). The GI50 (NCI-H226) was > 100 µM (inactive), the GI50 (HL-60) was > 100 µM (inactive) and the GI50 (HOP-62) was > 100 µM (inactive). The GI50 (MDA-MB-231) was > 100 µM (inactive), the GI50 (ACHN) was > 100 µM (inactive) and the GI50 (MDA-MB-435) was > 100 µM (inactive). The GI50 (K562) was > 100 µM (inactive), the GI50 (786-0) was > 100 µM (inactive) and the GI50 (DU-145) was > 100 µM (inactive). For the same molecule, the GI50 (MCF7) was > 100 µM (inactive), the GI50 (M14) was > 100 µM (inactive) and the GI50 (SF-295) was > 100 µM (inactive). For the same molecule, the GI50 (OVCAR-4) was > 100 µM (inactive), the GI50 (NCI-H23) was > 100 µM (inactive) and the GI50 (NCI/ADR-RES) was > 100 µM (inactive). The GI50 (RXF 393) was > 100 µM (inactive), the GI50 (OVCAR-3) was 70.1 µM (inactive) and the GI50 (NCI-H522) was > 100 µM (inactive). For the same molecule, the GI50 (SK-MEL-5) was > 100 µM (inactive), the GI50 (KM12) was > 100 µM (inactive) and the GI50 (SNB-19) was > 100 µM (inactive). The GI50 (SK-OV-3) was > 100 µM (inactive), the GI50 (A498) was 91.2 µM (inactive) and the GI50 (CCRF-CEM) was > 100 µM (inactive). For the same molecule, the GI50 (UACC-257) was > 100 µM (inactive) and the GI50 (T47D) was > 100 µM (inactive).

In the case of `O=C(/C=C/c1ccccc1)C[C@@H](O)C[C@@H]1CC=CC(=O)O1`, the GI50 (SW-620) was 2.35 µM (inactive), the GI50 (LOX IMVI) was 1.95 µM (inactive) and the GI50 (RPMI-8226) was 2.61 µM (inactive). The GI50 (MOLT-4) was 2.65 µM (inactive), the GI50 (HCT-15) was 10.2 µM and the GI50 (BT-549) was 11.4 µM (inactive). The GI50 (CAKI-1) was 14.2 µM (inactive), the GI50 (MDA-N) was 4.76 µM (inactive) and the GI50 (SNB-75) was 16.7 µM (inactive). The GI50 (U-251) was 8.69 µM (inactive), the GI50 (UACC-62) was 8.97 µM (inactive) and the GI50 (OVCAR-5) was 20 µM (inactive). For the same molecule, the GI50 (HCC 2998) was 5.93 µM (inactive), the GI50 (SK-MEL-28) was 11.5 µM (inactive) and the GI50 (UO-31) was 9.18 µM (inactive). For the same molecule, the GI50 (HT-29) was 5.13 µM (inactive), the GI50 (Malme-3M) was 14.2 µM (inactive) and the GI50 (HCT-116) was 2.46 µM (inactive). For the same molecule, the GI50 (SN12C) was 12.5 µM (inactive), the GI50 (PC-3) was 16.3 µM (inactive) and the GI50 (SF-268) was 10.1 µM (inactive). The GI50 (Hs-578T) was > 33.4 µM (inactive), the GI50 (IGROV-1) was 6.85 µM (inactive) and the GI50 (OVCAR-8) was 3.32 µM (inactive). For the same molecule, the GI50 (SR) was 2.84 µM (inactive), the GI50 (TK-10) was 14.9 µM (inactive) and the GI50 (A549) was 18.7 µM (inactive). For the same molecule, the GI50 (SF-539) was 3.57 µM (inactive), the GI50 (EKVX) was 17.1 µM (inactive) and the GI50 (COLO 205) was 5.5 µM (inactive). The GI50 (SK-MEL-2) was 14.2 µM (inactive), the GI50 (NCI-H226) was > 100 µM (inactive) and the GI50 (HL-60) was 2.18 µM (inactive). The GI50 (HOP-62) was 16 µM (inactive), the GI50 (MDA-MB-231) was 14.4 µM (inactive) and the GI50 (ACHN) was 12.7 µM (inactive). The GI50 (MDA-MB-435) was 4.86 µM (inactive), the GI50 (K562) was 2.33 µM (inactive) and the GI50 (786-0) was 3.34 µM (inactive). For the same molecule, the GI50 (DU-145) was 17.2 µM (inactive), the GI50 (HOP-92) was 3.88 µM (inactive) and the GI50 (MCF7) was 3.94 µM (inactive). The GI50 (M14) was 5.81 µM (inactive), the GI50 (SF-295) was 13.7 µM (inactive) and the GI50 (OVCAR-4) was 15.2 µM (inactive). The GI50 (NCI-H23) was 8.95 µM (inactive), the GI50 (NCI/ADR-RES) was 20.5 µM (inactive) and the GI50 (OVCAR-3) was 3.75 µM (inactive). The GI50 (NCI-H522) was 2.64 µM (inactive), the GI50 (SK-MEL-5) was 12.4 µM (inactive) and the GI50 (KM12) was 4.67 µM (inactive). For the same molecule, the GI50 (SNB-19) was 15.9 µM (inactive), the GI50 (SK-OV-3) was 14.3 µM (inactive) and the GI50 (A498) was 16.7 µM (inactive). For the same molecule, the GI50 (CCRF-CEM) was 1.85 µM (inactive), the GI50 (NCI-H460) was 16.3 µM (inactive) and the GI50 (UACC-257) was 13.6 µM (inactive). The GI50 (T47D) was 10.6 µM (inactive).

— ChEMBL document CHEMBL1201862, “PubChem BioAssay data set” (2004)
